Test: Serum fatty acid metabolomics (UPLC-MS/MS), feeding study
Experimental: This study examined global metabolic profiles in six dolphins (“Group A dolphins”). The dolphins lived in netted enclosures within San Diego Bay. The dolphins started on a 100% capelin diet. Group A dolphins were fed one-third of their daily diet in the morning after their routine overnight fast and 2h postprandial, in-water, and trained blood samples were drawn (typically near 10:00 a.m.). An additional four dolphins (“Group C dolphins”) were fed the capelin diet.
Two hour post-prandial samples were collected from the dolphins at baseline (week 0) and at four time points following the switch to the modified diet: 6, 12, 18, and 24 weeks. Routine monthly samples collected from four reference dolphins that were housed in the same environment as the Group A dolphins were assessed for glucose, triglycerides, ferritin, and percent serum fatty acids.
Sample Preparation: Samples were prepared using the automated MicroLab STAR® system from Hamilton Company. Several recovery standards were added prior to the first step in the extraction process for QC purposes. Proteins were precipitated with methanol under vigorous shaking for 2 min (Glen Mills GenoGrinder 2000) followed by centrifugation. The resulting extract was divided into five fractions: two for analysis by two separate reverse phase (RP)/UPLC-MS/MS methods with positive ion mode electrospray ionization (ESI), one for analysis by RP/UPLC-MS/MS with negative ion mode ESI, one for analysis by HILIC/UPLC-MS/MS with negative ion mode ESI, and one sample was reserved. Samples were placed briefly on a TurboVap® (Zymark) to remove the organic solvent. The sample extracts were stored overnight under nitrogen before preparation for analysis.
Ultrahigh Performance Liquid Chromatography-Tandem Mass Spectroscopy (UPLC-MS/[…]): Each of four methods utilized a Waters ACQUITY ultra-performance liquid chromatography (UPLC) and a Thermo Scientific Q-Exactive high resolution/accurate mass spectrometer interfaced with a heated electrospray ionization (HESI-II) source and Orbitrap mass analyzer operated at 35,000 mass resolution. A sample extract was dried, then reconstituted in solvents compatible to each of the four methods. Each reconstitution solvent contained a series of standards at fixed concentrations to ensure injection and chromatographic consistency. A first aliquot was analyzed using acidic positive ion conditions, chromatographically optimized for more hydrophilic compounds. In this method, the extract was gradient eluted from a C18 column (Waters UPLC BEH C18-2. 1×100 mm, 1.7 μm) using water and methanol, containing 0.05% perfluoropentanoic acid (PFPA) and 0.1% formic acid (FA). A second aliquot was also analyzed using acidic positive ion conditions, however it was chromatographically optimized for more hydrophobic compounds. In this method, the extract was gradient eluted from the same afore mentioned C18 column using methanol, acetonitrile, water, 0.05% PFPA and 0.01% FA and was operated at an overall higher organic content. A third aliquot was analyzed using basic negative ion optimized conditions using a separate dedicated C 18 column. The basic extracts were gradient eluted from the column using methanol and water, however with 6.5 mM Ammonium Bicarbonate at pH 8. […] The MS analysis alternated between MS and data-dependent MSn scans using dynamic exclusion. The scan range varied slighted between methods but covered 70-1000 m/z.
Data Extraction and Compound Identification: Raw data was extracted, peak-identified and QC processed using Metabolon's hardware and software. The systems were based on a web-service platform utilizing Microsoft's .NET technologies, which ran on high-performance application servers and fiber-channel storage arrays in clusters to provide active failover and load-balancing. Compounds were identified by comparison to library entries of purified standards or recurrent unknown entities.

[1] = Group A dolphins, modified diet, proportional to value at outset of study
[2] = bottlenose dolphin (Tursiops truncatus), in vivo, 6 weeks
[3] = bottlenose dolphin (Tursiops truncatus), in vivo, 18 weeks
[4] = bottlenose dolphin (Tursiops truncatus), in vivo, 24 weeks
[5] = bottlenose dolphin (Tursiops truncatus), in vivo, 12 weeks

Molecule	serum concentration 12 wk / 0 wk (in vivo)	serum concentration 18 wk / 0 wk (in vivo)	serum concentration 24 wk / 0 wk (in vivo)	serum concentration 6 wk / 0 wk (in vivo)	further results
CC/C=C\C/C=C\C/C=C\C/C=C\CCCCC(=O)O [stearidonate (18:4n3), stearidonate]	0.71	0.61	0.58	–	–
CCCCCCCCCCCCCCC(=O)O [pentadecanoate (15:0), pentadecanoate]	1.27	1.42	0.97	1.01	–
CCCCC/C=C\C/C=C\C/C=C\C/C=C\CCCCCC(=O)O [adrenate (22:4n6), all-cis-7,10,13,16-docosatetraenoic acid]	2.17	2.82	1.73	1.51	–
CC/C=C\C/C=C\C/C=C\C/C=C\C/C=C\C/C=C\CCC(=O)O [docosahexaenoate (DHA; 22:6n3), docosahexaenoate]	–	–	–	–	serum concentration 6 wk / 0 wk [1]: 1.05; serum concentration 12 wk / 0 wk [1]: 1.23; serum concentration 18 wk / 0 wk [1]: 1.06; serum concentration 24 wk / 0 wk [1]: 0.74
CCCC/C=C\CCCCCCCC(=O)O [myristoleate (14:ln5), myristoleate]	1.55	0.97	1.02	1.45	–
CCCCCCC=CCCCC(=O)O [5-dodecenoate (12:ln7), 5-dodecenoate]	1.67	1.08	1.11	1.49	–
CCCCC/C=C\C/C=C\CCCCCCCCCCCC(=O)O [docosadienoate (22:2n6), docosadienoate]	1.08	0.99	0.54	0.85	–
CCCCCCCCC(=O)O [perlargonate (9:0), nonanoic acid]	–	–	–	–	serum concentration 6 wk / 0 wk [2]: 1.26; serum concentration 18 wk / 0 wk [3]: 1.56; serum concentration 24 wk / 0 wk [4]: 1.41
CC/C=C\C/C=C\C/C=C\CCCCCCCCCCCC(=O)O [docosatrienoate (22:3n3), docosatrienoate]	2.06	1.96	1.06	1.08	–
CCCCCCCCCCCCCCCCCCC(=O)O [nonadecanoate (19:0), nonadecanoate]	1.65	1.79	1.28	1.22	–
CCCCC/C=C\C/C=C\CCCCCCCCCC(=O)O [dihomo-linoleate (20:2n6), dihomo-linoleate]	1.12	–	0.73	0.9	–
CCCCCCCC(=O)O [caprylate (8:0), caprylate]	–	–	–	–	serum concentration 6 wk / 0 wk [1]: 1.1; serum concentration 12 wk / 0 wk [1]: 1.07; serum concentration 18 wk / 0 wk [1]: 0.96; serum concentration 24 wk / 0 wk [1]: 1.12
docosapentaenoate [docosapentaenoate (n3 DPA; 22:5n3)]	1.37	1.27	0.78	1.13	–
CCCCCCCCC=CCCCCCCCCC(=O)O [10-nonadecenoate (19:ln9), 10-nonadecenoate]	1.28	1.17	0.8	1.05	–
CCCCCCC(=O)O [heptanoate (7:0), heptanoate]	–	–	–	–	serum concentration 6 wk / 0 wk [1]: 1.42; serum concentration 12 wk / 0 wk [1]: 1.02; serum concentration 18 wk / 0 wk [1]: 1.23; serum concentration 24 wk / 0 wk [1]: 1.21
CCCCCCC=CCCCCCCCCC(=O)O [10-heptadecenoate (17:ln7), 10-heptadecenoate]	1.38	1.35	0.87	1.12	–
CCCCCCCC/C=C\CCCCCCCCCCCC(=O)O [erucate (22:ln9), erucate]	0.81	0.68	0.45	0.71	–
CCCCCC(=O)O [caproate (6:0), caproate]	–	–	–	–	serum concentration 6 wk / 0 wk [1]: 0.98; serum concentration 12 wk / 0 wk [1]: 1.01; serum concentration 18 wk / 0 wk [1]: 0.92; serum concentration 24 wk / 0 wk [1]: 0.76
CC/C=C\C/C=C\C/C=C\C/C=C\C/C=C\CCCC(=O)O [eicosapentaenoate (EPA; 20:5n3), eicosapentaenoate]	–	–	–	–	serum concentration 6 wk / 0 wk [2]: 0.88; serum concentration 12 wk / 0 wk [5]: 0.99; serum concentration 18 wk / 0 wk [3]: 0.88; serum concentration 24 wk / 0 wk [4]: 0.57
linolenate	1.1	0.97	0.98	1.13	–
CCCCCC/C=C\CCCCCCCC(=O)O [palmitoleate (16:ln7), palmitoleate]	0.99	0.76	0.54	0.85	–
CCCCC/C=C\C/C=C\CCCCCCCC(=O)O [linoleate (18:2n6), linoleate]	–	–	–	–	serum concentration 6 wk / 0 wk [2]: 0.87; serum concentration 12 wk / 0 wk [5]: 0.93; serum concentration 18 wk / 0 wk [3]: 0.76; serum concentration 24 wk / 0 wk [4]: 0.66
eicosenoate [eicosenoate (20:1)]	0.81	0.72	0.43	0.72	–
CCCCCCCC/C=C\CCCCCCCCCCCCCC(=O)O [nervonate (24:ln9)*, nervonate]	1.41	0.74	0.62	0.71	–
C=CCCCCCCCCC(=O)O [10-undecenoate (1 l:ln1), 10-undecenoate]	1.54	1.22	1.75	1.41	–
oleate/vaccenate [oleate/vaccenate (18:1)]	1.04	0.84	0.64	0.98	–
CCCCC/C=C\C/C=C\C/C=C\C/C=C\C/C=C\CCC(=O)O [docosapentaenoate (n6 DPA; 22:5n6), all-cis-4,7,10,13,16-docosapentaenoic acid]	2.5	2.33	2.09	1.68	–
CCCCCCCCCCCCCC(=O)O [myristate (14:0), myristate]	–	–	–	–	serum concentration 6 wk / 0 wk [1]: 0.8; serum concentration 12 wk / 0 wk [1]: 0.87; serum concentration 18 wk / 0 wk [1]: 0.74; serum concentration 24 wk / 0 wk [1]: 0.58
